Data from patent publication US20050209278A1, “Piperidinyl- and piperazinyl-sulfonylmethyl hydroxamic acids and their use as protease inhibitors” (priority 2002, published 2005).
Counter-ions that a name gives are not always drawn.

Assays:
[1] = molecular target: T1, MMP-13 (Homo sapiens, UniProt P45452); experiment: In vitro MMP inhibition, IC50 determination (fluorogenic substrate I); assay type: biochemical; conditions: values in parenthesis; 4 μM substrate I; room temperature
T1 construct: made in house; host or cells: baculovirus / insect cells
Method: Several hydroxamic acids and salts thereof were analyzed in in vitro assays to determine their ability to inhibit the MMP cleavage of peptide substrates. […] and IC50 constants were calculated from the assayed hydroxamic acid-MMP interactions.
Human recombinant MMP-1, MMP-2, MMP-9, MMP-13, and MMP-14 were used in this assay. All enzymes were prepared in Assignee's laboratories following usual laboratory procedures. Protocols for the preparation and use of these enzymes are available in the scientific literature. See, e.g., Enzyme Nomenclature (Academic Press, San Diego, Calif., 1992) (and the citations therein). See also, Freije et al., “Molecular cloning and expression of collagenase-3, a novel human matrix metalloproteinase produced by breast carcinomas,” J Biol. Chem., 269(24), 16766-16773 (1994).
The MMP-13 was obtained as a proenzyme from a full-length cDNA clone using baculovirus, as described by V. A. Luckow, “Insect Cell Expression Technology,” Protein Engineering: Principles and Practice, pp. 183-218 (edited by J. L. Cleland et al., Wiley-Liss, Inc., 1996). The expressed proenzyme was first purified over a heparin agarose column, and then over a chelating zinc chloride column. The proenzyme was then activated by APMA for use in the assay. Further details on baculovirus expression systems may be found in, for example, Luckow et al., J. Virol., 67, 4566-79 (1993). See also, O'Reilly et al, Baculovirus Expression Vectors: A Laboratory Manual (W.H. Freeman and Co., New York, N.Y., 1992). See also, King et al., The Baculovirus Expression System: A Laboratory Guide (Chapman & Hall, London, England, 1992).
All MMPs were activated using 4-aminophenylmercuric acetate (“APMA”, Sigma Chemical, St. Louis, Mo.) or trypsin. MMP-9 also was activated using human recombinant MMP-3 (purified in Assignee's laboratory following standard cloning and purification techniques).
Two fluorogenic, methoxycoumarin-containing polypeptide substrates were used in the MMP inhibition assays: [drawing 427] Here, “Dpa” is 3-(2,4-dinitrophenyl)-L-2,3-diaminopropionyl group, and “MCA” is 7-methoxycoumarin-4-yl acetyl. Substrate (I) was purchased from Baychem (Redwood City, Calif.), and substrate II was prepared Assignee's laboratory. Substrate I was used in the IC50 determination assays, while substrate II was used in the Ki determination assays. In the absence of MMP inhibitory activity, either substrate is cleaved at the Gly-Leu peptide bond. This cleavage separates the highly fluorogenic peptide from the 2,4-dinitrophenyl quencher, thus resulting in increase of fluorescent intensity.
The stock solutions of the assayed hydroxamic acids (or salts thereof) were prepared in 1% dimethyl sulfoxide (DMSO). These stock solutions were diluted in Buffer A (100 mM Tris-HCl, 100 mM NaCl, 10 mM CaCl2, 0.05% polyoxyethylene 23 lauryl ether, pH 7.5) to obtain solutions with different hydroxamic acid concentrations, i.e., assay solutions with different concentrations of the assayed MMP inhibitory compound. The experiment controls contained the same amount of Buffer A/DMSO as the assayed sample, but contained no hydroxamic acid (or salt thereof).
The assays from which the IC50 determinations were made were performed as follows. The MMPs were activated with either trypsin or APMA (4-aminophenylmercuric acetate, Sigma Chemical, St. Louis, Mo.). The assayed hydroxamic acid samples were incubated in Microfluor™ White Plates (Dynatech, Chantilly, Va.) and analyzed on a Perkin Elmer L550 plate reader (Norwalk, Conn.). The excitation wavelength was 328 nm, and the emission wavelength—415 nm. All samples (assayed hydroxamic acids and controls) were incubated in separate plates at room temperature in the presence of 4 μM of MMP substrate (I). As stated in the previous paragraph, samples containing varying concentrations of the same assayed hydroxamic acid were prepared. Inhibition was measured as a reduction in fluorescent intensity as a function of MMP inhibitor concentration. […]

[2] = molecular target: T2, MMP-9 (Homo sapiens, UniProt P14780); experiment: as above; assay type: biochemical; conditions: values in parenthesis; 4 μM substrate I; room temperature
T2 construct: made in house; host or cells: MMP-9-transfected HT1080 cells (spent media)
Method: Several hydroxamic acids and salts thereof were analyzed in in vitro assays to determine their ability to inhibit the MMP cleavage of peptide substrates. […] and IC50 constants were calculated from the assayed hydroxamic acid-MMP interactions. Human recombinant MMP-1, MMP-2, MMP-9, MMP-13, and MMP-14 were used in this assay. All enzymes were prepared in Assignee's laboratories following usual laboratory procedures. Protocols for the preparation and use of these enzymes are available in the scientific literature. See, e.g., Enzyme Nomenclature (Academic Press, San Diego, Calif., 1992) (and the citations therein). See also, Freije et al., “Molecular cloning and expression of collagenase-3, a novel human matrix metalloproteinase produced by breast carcinomas,” J Biol. Chem., 269(24), 16766-16773 (1994). The MMP-9 proenzyme was purified by gelatin Sepharose chromatography from spent media of MMP-9-transfected HT1080 cells provided by Dr. Howard Welgus of Washington University (St. Louis, Mo.). All MMPs were activated using 4-aminophenylmercuric acetate (“APMA”, Sigma Chemical, St. Louis, Mo.) or trypsin. MMP-9 also was activated using human recombinant MMP-3 (purified in Assignee's laboratory following standard cloning and purification techniques). […] Substrate (I) was purchased from Baychem (Redwood City, Calif.), and substrate II was prepared Assignee's laboratory. Substrate I was used in the IC50 determination assays, while substrate II was used in the Ki determination assays. In the absence of MMP inhibitory activity, either substrate is cleaved at the Gly-Leu peptide bond. […] The stock solutions of the assayed hydroxamic acids (or salts thereof) were prepared in 1% dimethyl sulfoxide (DMSO). […] The experiment controls contained the same amount of Buffer A/DMSO as the assayed sample, but contained no hydroxamic acid (or salt thereof). The assays from which the IC50 determinations were made were performed as follows. […] Louis, Mo.). The assayed hydroxamic acid samples were incubated in MicrofluorTM White Plates (Dynatech, Chantilly, Va.) and analyzed on a Perkin Elmer […] plate reader (Norwalk, Conn.). The excitation wavelength was 328 nm, and the emission wavelength-415 nm. […] As stated in the previous paragraph, samples containing varying concentrations of the same assayed hydroxamic acid were prepared. Inhibition was measured as a reduction in fluorescent intensity as a function of MMP inhibitor concentration. […] All values in Table 2 are given in nM units. The IC50 measurements are in parenthesis.

T2 sequence (P14780 107-707 limits assumed): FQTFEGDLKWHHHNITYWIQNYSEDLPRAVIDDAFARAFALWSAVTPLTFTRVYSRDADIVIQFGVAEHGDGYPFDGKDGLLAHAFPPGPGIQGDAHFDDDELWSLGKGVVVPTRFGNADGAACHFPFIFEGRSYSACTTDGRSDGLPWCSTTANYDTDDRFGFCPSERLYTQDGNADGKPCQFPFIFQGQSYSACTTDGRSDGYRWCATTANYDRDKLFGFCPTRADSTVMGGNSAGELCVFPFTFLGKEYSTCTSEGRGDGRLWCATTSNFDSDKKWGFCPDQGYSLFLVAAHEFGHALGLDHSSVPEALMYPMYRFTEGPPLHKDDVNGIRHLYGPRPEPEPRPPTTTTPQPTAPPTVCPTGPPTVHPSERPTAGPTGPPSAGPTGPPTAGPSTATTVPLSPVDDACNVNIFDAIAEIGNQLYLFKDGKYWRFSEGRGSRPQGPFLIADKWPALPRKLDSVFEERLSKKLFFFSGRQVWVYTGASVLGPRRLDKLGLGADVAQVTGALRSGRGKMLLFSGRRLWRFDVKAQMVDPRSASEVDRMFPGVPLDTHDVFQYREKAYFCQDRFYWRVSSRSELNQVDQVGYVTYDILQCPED

In the case of `CCCCc1ccc(N2CCN(S(=O)(=O)C3(C(=O)NO)CCN(CCOC)CC3)CC2)cc1` [Example 5, 4-{[4-(4-butylphenyl)piperazin-1-yl]sulfonyl}-N-hydroxy-1-(2-methoxyethyl)piperidine-4-carboxamide Dihydrochloride], the IC50 [1] is reported as < 0.1 nM and the IC50 [2] is reported as < 0.1 nM.

`CCCCCc1ccc(N2CCN(S(=O)(=O)C3(C(=O)NO)CCN(CCOC)CC3)CC2)cc1` [Example 6, N-Hydroxy-1-(2-methoxyethyl)-4-{[4-(4-pentylphenyl)piperazin-1-yl]sulfonyl}piperidine-4-carboxamide Dihydrochloride] was tested, and the IC50 [1] was 0.1 nM and the IC50 [2] was 0.2 nM.

For `CCCCOc1ccc(N2CCN(S(=O)(=O)C3(C(=O)NO)CCN(CCOC)CC3)CC2)cc1F` [Example 11, 4-[[4-(4-butoxy-3-fluorophenyl)-1-piperazinyl]sulfonyl]-N-hydroxy-1-(2-methoxyethyl)-4-piperidinecarboxamide, Dihydrochloride], the IC50 [1] was 0.8 nM and the IC50 [2] was 2.3 nM.

Work on `CCCCCc1ccc(C2CCN(S(=O)(=O)C3(C(=O)NO)CCN(CCOC)CC3)CC2)cc1` [Example 15, N-hydroxy-1-(2-methoxyethyl)-4-{[4-(4-pentylpheyl)piperidin-1-yl]sulfonyl}piperidine-4-carboxamide Hydrochloride] yielded an IC50 [1] of 0.1 nM and an IC50 [2] of 0.3 nM.

With `O=C(NO)C1(S(=O)(=O)N2CCN(c3ccc(OCC4CC4)c(F)c3)CC2)CCN(C2CC2)CC1` [Example 10, 1-cyclopropyl-4-[[4-[4-(cyclopropylmethoxy)-3-fluorophenyl]-1-piperazinyl]sulfonyl]-N-hydroxy-4-piperidinecarboxamide, dihydrochloride] the IC50 [1] was 1.3 nM and the IC50 [2] was 0.3 nM.
